For assay [1], the system named is Eotaxin-3 (CCL26) release in human whole blood stimulated with IL-4. The experiment in a line: Human whole blood eotaxin-3 assay (IL-4 stimulated, Eotaxin-3 release). Format: cell-based. Conditions: for Emax: 48 h. In a few lines: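 Lithium-heparin blood preincubated 2 h at 37° C with 4-fold compound dilutions (0.5% DMSO, triplicates), then stimulated with 400 pM recombinant human IL-4 for 48 h. Eotaxin-3 in plasma supernatant measured by MSD immunoassay.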

A further assay deals with human STAT6 (Homo sapiens (Human), UniProt P42226). The experiment in a line: Surface plasmon resonance assay (Biacore 8K, binding to immobilized STAT6). The conditions noted are these: human STAT6 aa122-658, N-terminal His-tag, CM5 chip, 25° C.; geometric mean; read-out: STAT6 SPR Kd. The method in brief:
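Run at 25° C with His-tagged STAT6 aa122-658 (insect-cell expressed) amine-coupled to a CM5 chip, reference-subtracted, in PBS-P+ with 2% DMSO. Multi-cycle kinetics: 60 sec. contact, up to 300 sec. dissociation. Affinity fitted from late report-point binding isotherms, with Rmax both free and fixed to theoretical 1:1.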
(Surface plasmon resonance follows binding to a sensor surface in real time, without labels.)

Sequence of human STAT6 (P42226 122-658): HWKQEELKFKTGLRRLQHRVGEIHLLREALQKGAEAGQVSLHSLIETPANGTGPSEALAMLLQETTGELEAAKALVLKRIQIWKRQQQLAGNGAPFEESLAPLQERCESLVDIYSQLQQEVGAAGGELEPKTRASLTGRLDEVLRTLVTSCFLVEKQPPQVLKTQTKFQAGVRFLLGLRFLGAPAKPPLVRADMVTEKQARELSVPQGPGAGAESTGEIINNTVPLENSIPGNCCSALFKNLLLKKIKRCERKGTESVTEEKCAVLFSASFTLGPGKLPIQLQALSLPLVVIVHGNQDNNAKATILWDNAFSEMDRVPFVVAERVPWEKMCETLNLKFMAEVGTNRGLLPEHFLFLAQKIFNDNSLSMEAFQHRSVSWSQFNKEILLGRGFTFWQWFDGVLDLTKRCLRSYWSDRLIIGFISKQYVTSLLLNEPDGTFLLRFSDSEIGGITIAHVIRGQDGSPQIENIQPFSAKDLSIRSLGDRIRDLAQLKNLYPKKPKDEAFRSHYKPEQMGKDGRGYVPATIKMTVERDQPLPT

Take `CNc1ccc(-c2ccnc3c2cc(CN2CCN(c4ccc(C(=O)N(C)C)cc4C)CC2)n3C)nn1` [Example 1p3, N,N,3-Trimethyl-4-[4-[[1-methyl-4-[6-(methylamino)pyridazin-3-yl]pyrrolo[2,3-b]pyridin-2-yl]methyl]piperazin-1-yl]benzamide]: a half-maximal response in assay [1] (Homo sapiens, Hec50, 48 h) (EC50) required 232 nM. For the same molecule, at human STAT6, the Kd (as a rule, the concentration at which binding is half-saturated) was 19.2 nM.
As to `CNc1ccc(-c2ccnc3c2cc(CN2CC=C(c4ccc(C(=O)N(C)C)cc4C)CC2)n3C)nn1` [Example 1p6, N,N,3-Trimethyl-4-[1-[[1-methyl-4-[6-(methylamino)pyridazin-3-yl]pyrrolo[2,3-b]pyridin-2-yl]methyl]-3,6-dihydro-2H-pyridin-4-yl]benzamide], in assay [1] (Homo sapiens, Hec50, 48 h), the concentration giving a half-maximal response (EC50) (usually the concentration needed to bring the measured effect to its halfway point) amounted to 723 nM. Further, on human STAT6, the Kd was determined as 22 nM.
Consider `CC(=O)Nc1ccc(-c2ccnc3c2cc(CN2CC[C@@H](c4ccc(C(=O)N(C)C)cc4)[C@@H](F)C2)n3C)cc1` [Example 1r6, N,N-dimethyl-4-[(3R,4S)-1-[[4-(4-acetamidophenyl)-1-methyl-pyrrolo[2,3-b]pyridin-2-yl]methyl]-3-fluoro-4-piperidyl]benzamide], for which, in assay [1] (Homo sapiens), the Emax (commonly the maximal effect, on the per cent scale that the assay sets) is 51.2%. Further, the Kd at human STAT6 was 39.9 nM.
In assay [1] (Homo sapiens), `CNc1ccc(-c2ccnc3c2cc(CN2CCC(c4ccc(C(=O)N(C)C)cc4)CC2=O)n3C)cn1` (stereo not shown) [Example 1s2, N,N-Dimethyl-4-[1-[[1-methyl-4-[6-(methylamino)-3-pyridyl]pyrrolo[2,3-b]pyridin-2-yl]methyl]-2-oxo-4-piperidyl]benzamide] yielded a maximum response (Emax) of 54.4%. Besides, the Kd on human STAT6 was 35.8 nM.
`CNc1ccc(-c2ccnc3c2cc(CN2CC=C(c4ccc(C(=O)N(C)C)cc4C)CC2)n3C)cn1` [Example 1s8, N,N,3-Trimethyl-4-[1-[[1-methyl-4-[6-(methylamino)-3-pyridyl]pyrrolo[2,3-b]pyridin-2-yl]methyl]-3,6-dihydro-2H-pyridin-4-yl]benzamide] had an EC50 in assay [1] (Homo sapiens, Hec50, 48 h) of 958 nM. Besides, the equilibrium dissociation constant (Kd) on human STAT6 is 33.8 nM.
For `CNc1ccc(-c2ccnc3c2cc(CN2CC=C(c4c(C)cc(C(=O)N(C)C)cc4C)CC2)n3C)cn1` [Example 1s10, N,N,3,5-Tetramethyl-4-[1-[[1-methyl-4-[6-(methylamino)-3-pyridyl]pyrrolo[2,3-b]pyridin-2-yl]methyl]-3,6-dihydro-2H-pyridin-4-yl]benzamide] the same measures were 205 nM and 40.4 nM.
`CNc1ccc(-c2ccnc3c2cc(CN2CC=C(c4ncc(C(=O)N(C)C)cc4C)CC2)n3C)cn1` [Example 1s12, N,N,5-Trimethyl-6-[1-[[1-methyl-4-[6-(methylamino)-3-pyridyl]pyrrolo[2,3-b]pyridin-2-yl]methyl]-3,6-dihydro-2H-pyridin-4-yl]pyridine-3-carboxamide]: a half-maximal effect in assay [1] (Homo sapiens, Hec50, 48 h) (EC50) was put at 4960 nM. The Kd on human STAT6 stood at 32.1 nM.
In assay [1] (Homo sapiens, Hec50, 48 h), `CNc1ccc(-c2ccnc3c2cc(CN2CCC(c4c(C)cc(C(=O)N(C)C)cc4C)CC2)n3C)cn1` [Example 1s13, N,N,3,5-Tetramethyl-4-[1-[[1-methyl-4-[6-(methylamino)-3-pyridyl]pyrrolo[2,3-b]pyridin-2-yl]methyl]-4-piperidyl]benzamide] gave an EC50 of 480 nM. Moreover, the Kd at human STAT6 came to 28.8 nM.
Regarding `CNc1ccc(-c2ccnc3c2cc(CN2CCN(c4ccc(C(=O)N(C)C)cc4C)CC2)n3C)cn1` [Example 1s14, N,N,3-Trimethyl-4-[4-[[1-methyl-4-[6-(methylamino)-3-pyridyl]pyrrolo[2,3-b]pyridin-2-yl]methyl]piperazin-1-yl]benzamide], in assay [1] (Homo sapiens), the Emax was determined as 37.2%. Moreover, on human STAT6, the Kd worked out at 28.9 nM.
As to `CNc1ccc(-c2ccnc3c2cc(CN2CCC(c4ccc(C(=O)N(C)C)cc4F)CC2)n3C)cn1` [Example 1s30, 3-Fluoro-N,N-dimethyl-4-(1-((1-methyl-4-(6-(methylamino)pyridin-3-yl)-1H-pyrrolo[2,3-b]pyridin-2-yl)methyl)piperidin-4-yl)benzamide], in assay [1] (Homo sapiens, Hec50, 48 h), the EC50 came out at 2580 nM. Also, the Kd at human STAT6 is 22.1 nM.
The molecule `CNc1ccc(-c2ccnc3c2cc(CN2CCC(c4ccc(C(=O)N(C)C)cc4)CC2)n3C)[n+]([O-])c1` [Example 1u2, N,N-Dimethyl-4-[1-[[1-methyl-4-[5-(methylamino)-1-oxido-pyridin-1-ium-2-yl]pyrrolo[2,3-b]pyridin-2-yl]methyl]-4-piperidyl]benzamide] gave an EC50 in assay [1] (Homo sapiens, Hec50, 48 h) of 328 nM. On human STAT6, the dissociation constant Kd is 44.9 nM.
Molecule `CNc1ccc(-c2ccnc3c2cc(CN2CC=C(c4ccc(C(=O)N(C)C)cc4C)CC2)n3C)[n+]([O-])c1` [Example 1u3, N,N,3-Trimethyl-4-[1-[[1-methyl-4-[5-(methylamino)-1-oxido-pyridin-1-ium-2-yl]pyrrolo[2,3-b]pyridin-2-yl]methyl]-3,6-dihydro-2H-pyridin-4-yl]benzamide] showed a half-maximal effective concentration (EC50) in assay [1] (Homo sapiens, Hec50, 48 h) of 104 nM. On human STAT6, the dissociation constant Kd worked out at 16 nM.
As to `CNc1ccc(-c2ccnc3c2cc(CN2CCC(c4ccc(C(=O)N(C)C)cc4)CC2)n3S(C)(=O)=O)cn1` [Example 1x1, N,N-Dimethyl-4-[1-[[4-[6-(methylamino)-3-pyridyl]-1-methylsulfonyl-pyrrolo[2,3-b]pyridin-2-yl]methyl]-4-piperidyl]benzamide], the EC50 in assay [1] (Homo sapiens, Hec50, 48 h) amounted to 1110 nM. Also, on human STAT6, the Kd was 29.5 nM.
With “N,N-Dimethyl-4-[1-[[1-methyl-4-[6-(methylamino)-3-pyridyl]pyrrolo[2,3-b]pyridin-2-yl]methyl]-4-piperidyl]benzamide [Example 1k37]”, the EC50 in assay [1] (human whole blood, 400 pM recombinant human IL-4, 48 h, EC50 provided for compounds with >80% Emax, geometric mean) came out at 7160 nM. At human STAT6, the equilibrium dissociation constant (Kd) was 16 nM.

The values are drawn from patent US20250340551A1, “SMALL MOLECULE MODULATORS OF STAT6” (Gilead Sciences, Inc., priority 2024, published 2025).
